Series [1] can be described thus: solubility observed when preparing doses for MTD testing. It counts as physicochemical. The settings on record: dosing preparations for MTD testing. On the procedure: The active compounds BL1 and BL2, which were chosen to be tested in a preclinical model, were initially tested for toxicity in the mouse model by […] (MTD) testing. The MTD testing (MTD Tox56000 protocol, Eurofins Panlabs) was performed according to international standards, as will be briefly outlined in the following: Three mice were dosed with the compounds at each intended dose. BL1 active compound was prepared in a suitable stock concentration in 5% DMSO, or 5% DMSO, 10% Solutol, 85% PBS (for the 40 and 60 mg/kg/day), and dosed at 10, 30, 40, or 60 mg/kg/day by intraperitoneal injection (125 µl for each dose). BL2 active compound was dosed orally, at 10 mg/kg/day, 30 mg/kg/day, or 60 mg/kg/day, diluted in 5% DMSO, 2.5% carboxy-methyl-cellulose (CMC), in PBS, also at 125 µl per dose per animal. The dosing in each case started with the lowest dose in the three animals, followed by observation for up to 72 h. Subsequently, the next higher dose was administered to a different set of three mice, etc.. Both compounds to be used subsequently for the in vivo therapeutic administration were verified to be non-toxic to mice below an administered dose of 40 mg/kg per day.

Series [2] is described as follows: plasma cytokine analysis by Bioplex multiplex bead assay in treated mice. The class given is in vivo, C57B/L6 mice. The settings on record: chronic mouse infection model, BioRad Bioplex assay. On the procedure:
Before the infection and at the end of the treatment experiment, mouse blood was taken from the eye vein of a few selected mice (approximately 30 to 100 µl per mouse). The blood plasma was subsequently separated from cells using separation centrifugation devices (Sarstedt Microvette lithium-heparin). Plasma was diluted in Biorad Bioplex assay buffer to one fourth of the initial concentration and measured in the 23-Plex BioPlex bead-based multiplex cytokine assay (Biorad #m60009rdpd) according to the manufacturer's instructions and using the provided standards. Each sample was measured in a total volume of 50 µl in duplicate.

For series [3], the system named is flagellin protein FlaA. As to the kind of experiment: Western immunoblot of flagellin FlaA in bacterial fractions. It counts as cell-based, H. pylori. The settings on record: Western blot, soluble and surface-associated fractions, time point T2. The source says:
• Fig. 1: Developing and establishing a screening system by primary luciferase-based reporter screen for flagellar expression and biosynthesis of H. pylori in multi-well plates and identification of active small compounds by the screen. A) Results of luciferase flagellar reporter screen for one exemplary library of more than 1200 compounds; each dot represents one compound result. […] Inhibitory as well as enhancing activities of the compounds were observed. Yellow markings depict the borders of the Z-factor, corresponding to the three-fold standard error of the positive (non-inhibited) controls. […] Tracking assays with H. pylori were performed in liquid medium (RPMI1640 with 3% horse serum) and movies recorded in a CELL-R live imaging system (Olympus, see methods). A) Stops/reversals during the swimming runs of the bacteria as a measure of intact taxis and directional motility and curvilinear velocity (CLV) were quantitated as described in (Behrens et al., 2016). […] Two different time points of an H. pylori growth curve in liquid BHI medium (3% yeast extract, 5% horse serum), T1 (early exponential) T2 (late exponential growth) were monitored for differences in protein expression in the presence (+) or absence of Active 2 compound. […] Highquality sequences obtained from cagL positive PCRs in the absence of positive culture are boxed; respective Sanger sequence reads are shown in B). […]
On the technique in general: In western blotting, separated proteins are transferred to a membrane and probed.

For the compound `Cn1c(CSC(=N)N)c(Cl)c(=O)n1-c1ccccc1` [Active 2], in series [1], the solubility entry is on record as “very well soluble”. Further, in series [2], the plasma cytokine loads entry is “No significant change of plasma cytokine loads”. Further, the “amount of major flagellin FlaA” value in series [3] was “significant reduction of main flagellin FlaA at time point T2”; in series [3] (listed as Active 2/BL2), “reduced the amounts of the major flagellin, FlaA”.
